Results on 13 molecules are retold here after ChEMBL document CHEMBL3997786, “Development of Dihydroxyphenyl Sulfonylisoindoline Derivatives as Liver-Targeting Pyruvate Dehydrogenase Kinase Inhibitors” (J Med Chem, 2017).

The structures appear in SMILES notation.

As usually defined, the IC50 is the concentration at which inhibition is half-maximal. The term Kd denotes the equilibrium constant for the complex coming apart. By Cmax is commonly meant the peak of the concentration-time curve. A word on the Tmax: it is the time at which the peak concentration occurs.

In data set [1] the target is T1, [Pyruvate dehydrogenase (acetyl-transferring)] kinase isozyme 2, mitochondrial (Homo sapiens, UniProt Q15119). Kind of data set: Inhibition of N-terminal His6-SUMO tagged recombinant human PDK2 using [32P]-gamma-ATP assessed as decrease in incorporation of radioactivity into E1 protein incubated for 2 mins.
The target of data set [2] is T1, [Pyruvate dehydrogenase (acetyl-transferring)] kinase isozyme 2, mitochondrial. Briefly: Binding affinity to N-terminal His6-SUMO tagged recombinant human PDK2 by isothermal titration calorimetry.
Data set [3] deals with Plasma. Kind of data set: Cmax in CD1 mouse plasma at 30 mg/kg, ip by LC-MS/MS analysis. Type of data set: ADME, organism-based. The arrangement: dose 30 mg/kg, route intraperitoneal. The conditions noted are these: in vivo.
The target of data set [4] is T2, [Pyruvate dehydrogenase (acetyl-transferring)] kinase isozyme 4, mitochondrial (Homo sapiens, UniProt Q16654). Briefly: Inhibition of recombinant human PDK4 in presence of E1 protein and PDC core E2/E3BP incubated for 10 mins by titration assay.
The target of data set [5] is T1, [Pyruvate dehydrogenase (acetyl-transferring)] kinase isozyme 2, mitochondrial. Briefly: Inhibition of N-terminal His6-SUMO tagged recombinant human PDK2 in presence of E1 protein and PDC core E2/E3BP incubated for 10 mins by titration assay.
Data set [6] is described as follows: Tmax in CD1 mouse plasma at 30 mg/kg, ip by LC-MS/MS analysis. Type of data set: ADME, organism-based.
Another data set has as its system Mus musculus. Briefly: In vivo inhibition of PDK in DIO C57BL/6J mouse assessed as increase in PDC activity in liver at 40 to 45 mg/kg/day administered through mini osmotic pump for 2 weeks relative to control. Format: functional.
Data set [7] can be described thus: Tmax in CD1 mouse muscle at 30 mg/kg, ip by LC-MS/MS analysis. Type of data set: ADME, organism-based, Muscle tissue.
Data set [8] can be described thus: Terminal half life in CD1 mouse muscle at 30 mg/kg, ip by LC-MS/MS analysis. To be noted: read-out: beta t1/2. Format: ADME, organism-based, Muscle tissue.
Data set [9] is described as follows: Apparent clearance in CD1 mouse muscle at 30 mg/kg, ip by LC-MS/MS analysis. To be noted: in vivo. Type of data set: ADME, organism-based, Muscle tissue.
The subject of data set [10] is Plasma. Briefly: AUClast in CD1 mouse plasma at 30 mg/kg, ip by LC-MS/MS analysis. The arrangement: dose 30 mg/kg, route intraperitoneal, time 0 - last. The conditions noted are these: in vivo. Type of data set: ADME, organism-based.
For data set [11], the target named is T3, [Pyruvate dehydrogenase (acetyl-transferring)] kinase isozyme 1, mitochondrial (Homo sapiens, UniProt Q15118). Briefly: Inhibition of recombinant human PDK1 in presence of E1 protein and PDC core E2/E3BP incubated for 10 mins by titration assay.
Data set [12] addresses T4, [Pyruvate dehydrogenase (acetyl-transferring)] kinase isozyme 3, mitochondrial (Homo sapiens, UniProt Q15120). Kind of data set: Inhibition of recombinant human PDK3 in presence of E1 protein incubated for 10 mins by titration assay.
Data set [13] has as its system Liver. Kind of data set: Apparent volume of distribution during terminal phase in CD1 mouse liver at 30 mg/kg, ip by LC-MS/MS analysis. Type of data set: ADME, organism-based. The conditions noted are these: in vivo.
Data set [14] is described as follows: Cmax in CD1 mouse muscle at 30 mg/kg, ip by LC-MS/MS analysis. Format: ADME, organism-based, Muscle tissue. Also noted: dose 30 mg/kg, route intraperitoneal.
Data set [15] in a line: AUClast in CD1 mouse muscle at 30 mg/kg, ip by LC-MS/MS analysis. Format: ADME, organism-based, Muscle tissue. To be noted: in vivo.
The subject of data set [16] is Liver. Kind of data set: Cmax in CD1 mouse liver at 30 mg/kg, ip by LC-MS/MS analysis. Format: ADME, organism-based. Also noted: dose 30 mg/kg, route intraperitoneal. The conditions noted are these: in vivo.
Data set [17] deals with Liver. Briefly: AUClast in CD1 mouse liver at 30 mg/kg, ip by LC-MS/MS analysis. Type of data set: ADME, organism-based. To be noted: in vivo.
The nature of data set [18]: Apparent volume of distribution during terminal phase in CD1 mouse muscle at 30 mg/kg, ip by LC-MS/MS analysis. Format: ADME, organism-based, Muscle tissue. The conditions noted are these: in vivo.
For data set [19], the system named is Plasma. Kind of data set: Apparent volume of distribution during terminal phase in CD1 mouse plasma at 30 mg/kg, ip by LC-MS/MS analysis. Type of data set: ADME, organism-based. To be noted: in vivo.
Data set [20] can be described thus: Apparent clearance in CD1 mouse plasma at 30 mg/kg, ip by LC-MS/MS analysis. Type of data set: ADME, organism-based.
Data set [21] concerns the target T4, [Pyruvate dehydrogenase (acetyl-transferring)] kinase isozyme 3, mitochondrial. Briefly: Inhibition of recombinant human PDK3 in presence of E1 protein and PDC core E2/E3BP incubated for 10 mins by titration assay.
The test system of data set [22] is Liver. Kind of data set: Terminal half life in CD1 mouse liver at 30 mg/kg, ip by LC-MS/MS analysis. The conditions noted are these: in vivo. Format: ADME, organism-based.
In data set [23] the test system is Plasma. Kind of data set: Terminal half life in CD1 mouse plasma at 30 mg/kg, ip by LC-MS/MS analysis. Type of data set: ADME, organism-based. To be noted: in vivo.
In data set [24] the test system is Liver. Kind of data set: Tmax in CD1 mouse liver at 30 mg/kg, ip by LC-MS/MS analysis. To be noted: in vivo. Type of data set: ADME, organism-based.
Data set [25] has as its target T3, [Pyruvate dehydrogenase (acetyl-transferring)] kinase isozyme 1, mitochondrial. Kind of data set: Inhibition of recombinant human PDK1 in presence of E1 protein incubated for 10 mins by titration assay.
The target in data set [26] is T2, [Pyruvate dehydrogenase (acetyl-transferring)] kinase isozyme 4, mitochondrial. Kind of data set: Inhibition of recombinant human PDK4 in presence of E1 protein incubated for 10 mins by titration assay.
For data set [27], the system named is Liver. Kind of data set: Apparent clearance in CD1 mouse liver at 30 mg/kg, ip by LC-MS/MS analysis. Type of data set: ADME, organism-based. To be noted: in vivo.

T2 sequence (Q16654 whole entry): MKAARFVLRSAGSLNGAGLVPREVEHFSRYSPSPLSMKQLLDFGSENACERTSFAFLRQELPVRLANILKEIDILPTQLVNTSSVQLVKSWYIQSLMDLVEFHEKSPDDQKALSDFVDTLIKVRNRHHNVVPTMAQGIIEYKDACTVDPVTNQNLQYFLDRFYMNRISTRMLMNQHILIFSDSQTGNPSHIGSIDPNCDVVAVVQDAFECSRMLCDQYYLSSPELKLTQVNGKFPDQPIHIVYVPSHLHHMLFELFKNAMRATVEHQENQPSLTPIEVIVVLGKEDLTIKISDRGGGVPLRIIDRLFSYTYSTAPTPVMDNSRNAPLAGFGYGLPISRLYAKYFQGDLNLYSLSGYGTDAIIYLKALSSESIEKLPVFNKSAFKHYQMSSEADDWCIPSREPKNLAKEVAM
T4 sequence (Q15120 whole entry): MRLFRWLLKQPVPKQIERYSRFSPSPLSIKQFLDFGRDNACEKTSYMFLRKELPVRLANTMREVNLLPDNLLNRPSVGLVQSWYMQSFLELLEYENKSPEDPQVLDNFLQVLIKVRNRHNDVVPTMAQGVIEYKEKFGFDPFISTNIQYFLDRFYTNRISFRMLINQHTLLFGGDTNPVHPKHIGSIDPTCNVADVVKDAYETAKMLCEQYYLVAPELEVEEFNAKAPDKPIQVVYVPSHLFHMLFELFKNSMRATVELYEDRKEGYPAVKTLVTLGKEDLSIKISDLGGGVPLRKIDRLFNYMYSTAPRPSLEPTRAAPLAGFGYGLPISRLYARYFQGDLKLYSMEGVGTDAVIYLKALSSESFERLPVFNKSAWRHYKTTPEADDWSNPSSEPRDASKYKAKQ
T3 sequence (Q15118 whole entry): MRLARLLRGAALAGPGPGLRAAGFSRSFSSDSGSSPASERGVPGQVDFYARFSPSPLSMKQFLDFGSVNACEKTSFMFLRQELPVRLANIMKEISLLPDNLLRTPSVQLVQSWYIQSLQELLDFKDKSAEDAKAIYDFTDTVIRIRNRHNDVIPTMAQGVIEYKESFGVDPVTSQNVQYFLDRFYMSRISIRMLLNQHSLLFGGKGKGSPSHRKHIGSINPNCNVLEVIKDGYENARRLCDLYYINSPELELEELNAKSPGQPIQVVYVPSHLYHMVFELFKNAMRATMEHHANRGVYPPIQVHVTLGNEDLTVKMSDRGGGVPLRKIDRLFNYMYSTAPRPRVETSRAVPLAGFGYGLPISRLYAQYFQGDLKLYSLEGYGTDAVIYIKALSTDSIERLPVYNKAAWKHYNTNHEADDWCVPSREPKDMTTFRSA

In the case of `NC(=O)CC[C@H](N)C(=O)N1CCC(Nc2ccc3c(c2)CN(S(=O)(=O)c2ccc(O)cc2O)C3)CC1`, in [1], the IC50 is 72 nM.
As to `NC(=O)C[C@H](N)C(=O)N1CC[C@H](Nc2ccc3c(c2)CN(S(=O)(=O)c2ccc(O)cc2O)C3)C1`, the IC50 in data set [1] was determined as 156 nM.
The same measure, in the same setting: the result for `O=C(O)CCCCC(=O)N1CCC(Nc2ccc3c(c2)CN(S(=O)(=O)c2ccc(O)cc2O)C3)CC1` reads 1610 nM.
On to `O=S(=O)(c1ccc(O)cc1O)N1Cc2ccc(NC3CCNCC3)cc2C1`, for which the Kd in data set [2] amounted to 110 nM. For the same molecule, the IC50 in data set [1] amounted to 195 nM.
Consider `O=C(O)c1ccccc1C(=O)N1CCC(Nc2ccc3c(c2)CN(S(=O)(=O)c2ccc(O)cc2O)C3)CC1`, for which the concentration for half-maximal inhibition (IC50) in data set [1] was found to be 565 nM.
The same measure, in the same setting: the result for `NC(=O)C[C@H](N)C(=O)N1CCN(c2ccc3c(c2)CN(S(=O)(=O)c2ccc(O)cc2O)C3)CC1` reads 767 nM.
`O=C(C1C[C@@H](O)C(O)[C@H](O)C1)N1CCC(Nc2ccc3c(c2)CN(S(=O)(=O)c2ccc(O)cc2O)C3)CC1` (stereo partly specified): the 50% inhibitory concentration (IC50) in [1] came out at 432 nM.
Still for that read-out and setting: as for `O=S(=O)(c1ccc(O)cc1O)N1Cc2ccc(N3CCCCC3)cc2C1`, the figure is 4370 nM.
The same measure, in the same setting: the result for `NC(=O)C[C@H](N)C(=O)NCCNc1ccc2c(c1)CN(S(=O)(=O)c1ccc(O)cc1O)C2` reads 357 nM.
Regarding `NC(=O)C[C@H](N)C(=O)N1CCC(Nc2ccc3c(c2)CN(S(=O)(=O)c2ccc(O)cc2O)C3)CC1`, the peak concentration (Cmax) in the data set on Plasma [3] worked out at 5443 ng/mL; in [14], 2420 ng/g; in the data set with Liver [16], 18767 ng/g. Also, the 50% inhibitory concentration (IC50) was 416 nM in [4]; 81 nM in data set [5]; 2060 nM in data set [11]; 45800 nM in data set [12]; 1710 nM in data set [21]; 2540 nM in data set [25]. Further, the IC50 in [26] was 284 nM; in [1], 58 nM. For the same molecule, the Tmax is 10 min in data set [6], 10 min in [7] and 30 min in the data set with Liver [24]. Further, in the data set with Mus musculus, the “fold change (FC)” value is listed as 6. Besides, the half-life in data set [8] worked out at 324 min. The CL/F in data set [9] came to 8.64 g/min; in data set [20], 3.11 mL/min; in the data set with Liver [27] it was 0.266 g/min. In addition, the dissociation constant (Kd) in [2] came to 22 nM. Further, the AUClast in the data set with Plasma [10] was found to be 234088 ng·min/mL; in [15], 83083 ng·min/g; in the data set on Liver [17], 2682301 ng·min/g. Besides, the Vz/F in the data set on Liver [13] was 116 g; in [18], 4043 g; with Plasma [19] it was 1289 mL. Also, the “beta t1/2” value in the data set with Liver [22] amounted to 303 min; with Plasma [23], 288 min.
`NC(=O)C[C@H](N)C(=O)N1CC[C@@H](Nc2ccc3c(c2)CN(S(=O)(=O)c2ccc(O)cc2O)C3)C1`: in [1], the IC50 amounted to 221 nM.
Same read-out and setting: as for `N[C@@H](CO)C(=O)N1CCC(Nc2ccc3c(c2)CN(S(=O)(=O)c2ccc(O)cc2O)C3)CC1`, the figure is 68 nM.
On the same count and under the same terms, as for `Nc1ccc2c(c1)CN(S(=O)(=O)c1ccc(O)cc1O)C2`, the figure is 1180 nM.
